Results: patent US5192507A (priority 1991, dated 1993)
Several values for one entry are separate records, joined by “and”; a condition that tells them apart may be missing. Equal values may be shown once.

Experiments:
[1] = system: acetylcholine receptor (AChR); format: binding, Electrophorus electricus
[2] = system: acetylcholine receptor (AChR); format: binding, Electrophorus electricus; remark: listed apart in the source
opiate receptor (OpR) = format: binding, rat

OC[C@H]1OC(O)[C@H](O)[C@@H](O)[C@@H]1O (stereo partly shown) [Glucose]
% Change with respect to control sensor [1]: 3% and 0% and 6% and 5%
change in resistance between control and AChR sensors (in words) [1]: no change

CCCCCCCCCC[N+](C)(C)CCCS(=O)(=O)[O-] [Zwittergent ™ 3-10]
% Activity Increase (AChR membrane activity) [2]: 13%

Triton ™ X-100
increase in retention of binding activity of AChR [2]: more than 90%

CN1CC[C@]23CCCC[C@H]2[C@H]1Cc1ccc(O)cc13 [Levorphanol]
Δ% (difference between resistance changes of test and control chips) (opiate receptor (OpR)): 10%
ΔK.OMEGA. (change in resistance across the biosensor circuit) (opiate receptor (OpR)): -160

CCCCCCCC[N+](C)(C)CCCS(=O)(=O)[O-] [Zwittergent ™ 3-08]
% Activity Increase (AChR membrane activity) [2]: 55%
